Counter-ions that a name gives are not always drawn.

T1 sequence (P20231 31-275): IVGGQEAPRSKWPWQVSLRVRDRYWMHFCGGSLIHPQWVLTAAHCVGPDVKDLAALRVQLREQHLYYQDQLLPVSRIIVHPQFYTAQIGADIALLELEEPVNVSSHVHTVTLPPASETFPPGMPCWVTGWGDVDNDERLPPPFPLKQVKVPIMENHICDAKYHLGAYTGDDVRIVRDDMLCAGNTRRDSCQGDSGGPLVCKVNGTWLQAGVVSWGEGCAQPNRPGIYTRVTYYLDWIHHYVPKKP

The first assay has as its target T1, recombinant human beta tryptase (Homo sapiens, UniProt P20231).
T1 construct: made in house; host or cells: yeast cells
The assay is described as follows: beta-Tryptase inhibition, chromogenic enzyme assay (substrate S2366, read at 405 nm). Format: biochemical. To be noted: Ki calculated from IC50: Ki=IC50/(1+[Substrate]/Km); 0.5 mM substrate, room temperature; read-out: Tryptase Ki. The procedure, abridged: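 Recombinant human beta tryptase (yeast-expressed; native lung enzyme also used), 50 ng/mL final, with 0.5 mM (2×Km) chromogenic substrate S2366; 30 min in the dark, room temperature, read at 405 nm. Compounds at 0.01-10 μM in duplicate for IC50; Ki=IC50/(1+[S]/Km).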
The term Ki denotes the equilibrium dissociation constant of an inhibitor or competing ligand from its target. For `COCCn1cc(C(=O)N2CCC(c3cc(CN)ccc3F)CC2)c2c(-c3cncc(C)c3)cccc21` [Example 82, [4-(5-Aminomethyl-2-fluoro-phenyl)-piperidin-1-yl]-[1-(2-methoxy-ethyl)-4-(5-methyl-pyridin-3-yl)-1H-indol-3-yl]-methanone dihydrochloride], the Ki is 6 nM.

On to `COCCn1cc(C(=O)N2CCC(c3cc(CN)ccc3F)CC2)c2c(-c3ccnc(C)c3)cccc21` [Example 83, [4-(5-Aminomethyl-2-fluoro-phenyl)-piperidin-1-yl]-[1-(2-methoxy-ethyl)-4-(2-methyl-pyridin-4-yl)-1H-indol-3-yl]-methanone dihydrochloride], for which the Ki is 5 nM.

Consider `COCCn1cc(C(=O)N2CCC(c3cc(CN)ccc3F)CC2)c2c(-c3cncc(F)c3)cccc21` [Example 84, [4-(5-Aminomethyl-2-fluoro-phenyl)-piperidin-1-yl]-[4-(5-fluoro-pyridin-3-yl)-1-(2-methoxy-ethyl)-1H-indol-3-yl]-methanone dihydrochloride], for which the Ki was 22 nM.

Consider `COCCn1cc(C(=O)N2CCC(c3cc(CN)ccc3F)CC2)c2c(-c3ccnc(OC)c3)cccc21` [Example 85, [4-(5-Aminomethyl-2-fluoro-phenyl)-piperidin-1-yl]-[1-(2-methoxy-ethyl)-4-(2-methoxy-pyridin-4-yl)-1H-indol-3-yl]-methanone dihydrochloride], for which the Ki is 9 nM.

Consider `COCCn1cc(C(=O)N2CCC(c3cc(CN)ccc3F)CC2)c2c(-c3ccnn3C)cccc21` [Example 89, [4-(5-Aminomethyl-2-fluoro-phenyl)-piperidin-1-yl]-[1-(2-methoxy-ethyl)-4-(2-methyl-2H-pyrazol-3-yl)-1H-indol-3-yl]-methanone dihydrochloride], for which the Ki is 11 nM.

With `CCCn1cc(-c2cccc3c2c(C(=O)N2CCC(c4cc(CN)ccc4F)CC2)cn3CCOC(F)(F)F)cn1` [Example 93, [4-(5-Aminomethyl-2-fluoro-phenyl)-piperidin-1-yl]-[4-(1-propyl-1H-pyrazol-4-yl)-1-(2-trifluoromethoxy-ethyl)-1H-indol-3-yl]-methanone dihydrochloride], the Ki is 160 nM.

Staying with this assay, now noted: Tryptase Ki (nM), Ki calculated from IC50: Ki=IC50/(1+[Substrate]/Km); 0.5 mM substrate, room temperature.
For `NCc1ccc(F)c(C2CCN(C(=O)c3cn(CCOC(F)(F)F)c4cccc(-c5ccccc5)c34)CC2)c1` [Example 80, [4-(5-Aminomethyl-2-fluoro-phenyl)-piperidin-1-yl]-[4-phenyl-1-(2-trifluoromethoxy-ethyl)-1H-indol-3-yl]-methanone hydrochloride], the Ki is 961 nM.

For `NCc1ccc(F)c(C2CCN(C(=O)c3cn(CCOC(F)(F)F)c4ccccc34)CC2)c1` [Example 81, hydrochloride], the Ki was 224 nM.

Turning to `NCc1ccc(F)c(C2CCN(C(=O)c3cn(CCOC(F)(F)F)c4c(F)cccc34)CC2)c1` [Example 86, [4-(5-Aminomethyl-2-fluoro-phenyl)-piperidin-1-yl]-[7-fluoro-1-(2-trifluoromethoxy-ethyl)-1H-indol-3-yl]-methanone hydrochloride], the Ki is 80 nM.

As to `NCc1ccc(F)c(C2CCN(C(=O)c3cn(CCOC(F)(F)F)c4c(Cl)cccc34)CC2)c1` [Example 87, hydrochloride], the Ki was 207 nM.

As to `Cc1cccc2c(C(=O)N3CCC(c4cc(CN)ccc4F)CC3)cn(CCOC(F)(F)F)c12` [Example 88, hydrochloride], the Ki was 239 nM.

Take `NCc1ccc(F)c(C2CCN(C(=O)c3cn(CCOC(F)(F)F)c4cccc(F)c34)CC2)c1` [Example 90, [4-(5-Aminomethyl-2-fluoro-phenyl)-piperidin-1-yl]-[4-fluoro-(2-trifluoromethoxy-ethyl)-1H-indol-3-yl]-methanone hydrochloride]: the Ki is 396 nM.

`COCCn1cc(C(=O)N2CCC(c3cc(CN)ccc3F)CC2)c2c(C(=O)N(C)C)cccc21` [Example 91, 3-[4-(5-Aminomethyl-2-fluoro-phenyl)-piperidine-1-carbonyl]-1-(2-methoxy-ethyl)-1H-indol-4-carboxylic acid dimethylamide hydrochloride]: the Ki was 20 nM.

For `NCc1ccc(F)c(C2CCN(C(=O)c3cn(CCOC(F)(F)F)c4cccc(-c5cncnc5)c34)CC2)c1` [Example 92, [4-(5-Aminomethyl-2-fluoro-phenyl)-piperidin-1-yl]-[4-pyrimidin-5-yl-1-(2-trifluoromethoxy-ethyl)-1H-indol-3-yl]-methanone dihydrochloride], the Ki is 90 nM.

In the case of `COCCn1cc(C(=O)N2CCC(c3cc(CN)ccc3F)CC2)c2c(C(=O)N3CCCCC3)cccc21` [Example 94, [4-(5-Aminomethyl-2-fluoro-phenyl)-piperidine-1-yl]-[1-(2-methoxy-ethyl)-4-(piperidine-1-carbonyl)-1H-indol-3-yl]-methanone hydrochloride], the Ki was 21 nM.

Take `COCCn1cc(C(=O)N2CCC(c3cc(CN)ccc3F)CC2)c2c(NC(=O)C3CCOCC3)cccc21` [Example 95, Tetrahydro-pyran-4-carboxylic acid [3-[4-(5-aminomethyl-2-fluoro-phenyl)-piperidine-1-carbonyl]-1-(2-methoxy-ethyl)-1H-indol-4-yl]-amide hydrochloride]: the Ki is 44 nM.

Take `COCCn1cc(C(=O)N2CCC(c3cc(CN)ccc3F)CC2)c2c(NC(C)=O)cccc21` [Example 96, N-[3-[4-(5-Aminomethyl-2-fluoro-phenyl)-piperidine-1-carbonyl]-1-(2-methoxy-ethyl)-1H-indol-4-yl]-acetamide hydrochloride]: the Ki is 18 nM.

As for `COCCn1cc(C(=O)N2CCC(c3cc(CN)ccc3F)CC2)c2c(NC(=O)C3CCN(C)CC3)cccc21` [Example 97, 1-Methyl-piperidine-4-carboxylic acid [3-[4-(5-aminomethyl-2-fluoro-phenyl)-piperidine-1-carbonyl]-1-(2-methoxy-ethyl)-1H-indol-4-yl]-amide hydrochloride], the Ki is 28 nM.

In the case of `COCCn1cc(C(=O)N2CCC(c3cc(CN)ccc3F)CC2)c2c(NC(=O)C3CC4CCC3C4)cccc21` (centres unmarked) [Example 98, Bicyclo[2.2.1]heptane-2-carboxylic acid [3-[4-(5-aminomethyl-2-fluoro-phenyl)-piperidine-1-carbonyl]-1-(2-methoxy-ethyl)-1H-indol-4-yl]-amide hydrochloride], the Ki was 147 nM.

In the case of `COCCn1cc(C(=O)N2CCC(c3cc(CN)ccc3F)CC2)c2c(NC(=O)N3CCOCC3)cccc21` [Example 99, Morpholine-4-carboxylic acid [3-[4-(5-aminomethyl-2-fluoro-phenyl)-piperidine-1-carbonyl]-1-(2-methoxy-ethyl)-1H-indol-4-yl]-amide hydrochloride], the Ki is 25 nM.

Regarding `COCCn1cc(C(=O)N2CCC(c3cc(CN)ccc3F)CC2)c2c(NC(=O)N(C)C)cccc21` [Example 100, 3-[3-[4-(5-Aminomethyl-2-fluoro-phenyl)-piperidine-1-carbonyl]-1-(2-methoxy-ethyl)-1H-indol-4-yl]-1,1-dimethyl-urea hydrorchloride], the Ki is 17 nM.

With `COCCn1cc(C(=O)N2CCC(c3cc(CN)ccc3F)CC2)c2c(NC(=O)c3ccncc3)cccc21` [Example 101, N-[3-[4-(5-Aminomethyl-2-fluoro-phenyl)-piperidine-1-carbonyl]-1-(2-methoxy-ethyl)-1H-indol-4-yl]-isonicotinamide hydrochloride], the inhibition constant (Ki) is 11 nM.

`COCCn1cc(C(=O)N2CCC(c3cc(CN)ccc3F)CC2)c2c(NC(=O)c3cncnc3)cccc21` [Example 102, Pyrimidine-5-carboxylic acid [3-[4-(5-aminomethyl-2-fluoro-phenyl)-piperidine-1-carbonyl]-1-(2-methoxy-ethyl)-1H-indol-4-yl]-amide hydrochloride]: the Ki is 22 nM.

As for `COCCn1cc(C(=O)N2CCC(c3cc(CN)ccc3F)CC2)c2c(NC(=O)c3ccno3)cccc21` [Example 103, Isoxazole-5-carboxylic acid [3-[4-(5-aminomethyl-2-fluoro-phenyl)-piperidine-1-carbonyl]-1-(2-methoxy-ethyl)-1H-indol-4-yl]-amide hydrochloride], the Ki was 41 nM.

`COCCn1cc(C(=O)N2CCC(c3cc(CN)ccc3F)CC2)c2c(NS(=O)(=O)N(C)C)cccc21` [Example 104, Dimethylamino-1-sulfonic acid [3-[4-(5-aminomethyl-2-fluoro-phenyl)-piperidine-1-carbonyl]-1-(2-methoxy-ethyl)-1H-indol-4-yl]-amide]: the inhibition constant Ki is 204 nM.

For the molecule `COCCn1cc(C(=O)N2CCC(c3cc(CN)ccc3F)CC2)c2c(NS(=O)(=O)c3cn(C)cn3)cccc21` [Example 105, 1-Methyl-1H-imidazole-4-sulfonic acid [3-[4-(5-aminomethyl-2-fluoro-phenyl)-piperidine-1-carbonyl]-1-(2-methoxy-ethyl)-1H-indol-4-yl]-amide hydrochloride], the Ki is 100 nM.

Consider `COCCn1cc(C(=O)N2CCC(c3cc(CN)ccc3F)CC2)c2c(NS(=O)(=O)c3cccnc3)cccc21` [Example 106, Pyridine-3-sulfonic acid [3-[4-(5-aminomethyl-2-fluoro-phenyl)-piperidine-1-carbonyl]-1-(2-methoxy-ethyl)-1H-indol-4-yl]-amide hydrochloride], for which the Ki is 149 nM.

Turning to `CCCCS(=O)(=O)Nc1cccc2c1c(C(=O)N1CCC(c3cc(CN)ccc3F)CC1)cn2CCOC` [Example 107, Butane-1-sulfonic acid [3-[4-(5-aminomethyl-2-fluoro-phenyl)-piperidine-1-carbonyl]-1-(2-methoxy-ethyl)-1H-indol-4-yl]-amide hydrochloride], the Ki is 315 nM.

Staying with this assay, now noted: Tryptase Ki (nM), additional value in parentheses tagged "719" (code not explained).
As to `COCCn1cc(C(=O)N2CCC(c3cc(CN)ccc3F)CC2)c2c(C(=O)N(C)C)cccc21` [Example 91, 3-[4-(5-Aminomethyl-2-fluoro-phenyl)-piperidine-1-carbonyl]-1-(2-methoxy-ethyl)-1H-indol-4-carboxylic acid dimethylamide hydrochloride], the Ki worked out at 54 nM.

Staying with this assay, now noted: Tryptase Ki (nM), additional value in parentheses tagged "719D" (code not explained).
Consider `COCCn1cc(C(=O)N2CCC(c3cc(CN)ccc3F)CC2)c2c(NC(=O)C3CCOCC3)cccc21` [Example 95, Tetrahydro-pyran-4-carboxylic acid [3-[4-(5-aminomethyl-2-fluoro-phenyl)-piperidine-1-carbonyl]-1-(2-methoxy-ethyl)-1H-indol-4-yl]-amide hydrochloride], for which the Ki is 47 nM.

The assay is the same for the next values; noted with them: Tryptase Ki (nM), additional value in parentheses tagged "8923" (code not explained).
As for `COCCn1cc(C(=O)N2CCC(c3cc(CN)ccc3F)CC2)c2c(C(=O)N(C)C)cccc21` [Example 91, 3-[4-(5-Aminomethyl-2-fluoro-phenyl)-piperidine-1-carbonyl]-1-(2-methoxy-ethyl)-1H-indol-4-carboxylic acid dimethylamide hydrochloride], the Ki was found to be 28 nM.

`COCCn1cc(C(=O)N2CCC(c3cc(CN)ccc3F)CC2)c2c(NC(=O)C3CCOCC3)cccc21` [Example 95, Tetrahydro-pyran-4-carboxylic acid [3-[4-(5-aminomethyl-2-fluoro-phenyl)-piperidine-1-carbonyl]-1-(2-methoxy-ethyl)-1H-indol-4-yl]-amide hydrochloride]: the Ki was determined as 15 nM.
